Assay results as given in PubChem BioAssay AID504687 (Sanford-Burnham Center for Chemical Genomics, 2011).
Several values for one entry are separate records, joined by “and”; a condition that tells them apart may be missing. Equal entries are not always repeated. Activity calls are given as the source filed them. No rule for the calls is given here.

What follows are compounds tested against Ubiquitin-conjugating enzyme E2 N (Homo sapiens) (UniProt P61088) (assay: UBC13 polyubiquitin chain formation inhibitors, SAR follow-up, biochemical, TR-FRET (AID 504687)).
Sequence of Ubiquitin-conjugating enzyme E2 N (Homo sapiens) (P61088 whole entry, looked up): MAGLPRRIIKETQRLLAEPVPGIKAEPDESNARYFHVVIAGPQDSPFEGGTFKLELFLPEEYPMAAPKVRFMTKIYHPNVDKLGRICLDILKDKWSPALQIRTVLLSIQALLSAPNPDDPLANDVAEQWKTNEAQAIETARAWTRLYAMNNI

SMILES	IC50
COC(=O)c1ccc(OCC(O)CN2CCN(CCN3C(=O)c4cccc5cccc(c45)C3=O)CC2)cc1 (configuration not stated)	4.61 µM
O=C1c2cccc3cccc(c23)N1Cc1ccc(F)cc1	3.57 µM
Cc1cccc(OCC(O)CN2CCN(CCN3C(=O)c4cccc5cccc(c45)C3=O)CC2)c1C (configuration not stated)	4.76 µM
Cc1nc2ccccc2c(=O)n1NC(=O)c1ccc(OC(F)F)cc1	15 µM
O=C(CCCCCN1C(=O)c2ccccc2C1=O)N1CCN(c2ccc([N+](=O)[O-])cc2)CC1	> 100 µM (inactive)
O=C(CCCn1c(=O)c2ccccc2n(Cc2ccc(Cl)cc2)c1=O)NC1CCN(Cc2ccccc2)CC1	0.35 µM
CCC1CCCCN1CCCNC(=O)C1CCN(c2ncnc3c2nc2n3CCCCC2)CC1 (configuration not stated)	7.28 µM
Cc1ccc(OCC(O)CN2CCN(CCN3C(=O)c4cccc5cccc(c45)C3=O)CC2)c(C)c1 (configuration not stated)	4.75 µM
O=C1c2cccc3cccc(c23)C(=O)N1CCN1CCN(CC(O)COc2ccc(Cl)cc2)CC1 (configuration not stated)	0.9 µM
CCc1ccc(OCC(O)CN2CCC(CN3C(=O)c4cccc5cccc(c45)C3=O)CC2)cc1 (configuration not stated)	8.76 µM
O=C(CCCCCN1C(=O)c2ccccc2C1=O)Nc1ccc(S(=O)(=O)Nc2ncccn2)cc1	> 100 µM (inactive)
CCc1ccc2nc(N(CCCN(C)C)C(=O)c3ccc(S(=O)(=O)N4CCc5ccccc5C4)cc3)sc2c1	2.8 µM
CC1CCCC(C)N1CCCNC(=O)C1CCCN(c2ncnc3c2nc2n3CCCCC2)C1 (configuration not stated)	12.3 µM
O=C(CCCCCN1C(=O)c2ccccc2C1=O)NCCc1nc2ccccc2[nH]1	10.2 µM
O=C1c2cccc3cccc(c23)C(=O)N1CCN1CCN(CC(O)COCc2ccc(Cl)cc2)CC1 (configuration not stated)	1.07 µM
O=C(CCCCCN1C(=O)c2cccc3cccc(c23)C1=O)NCCO	12.7 µM
CC(=O)c1ccc(OCC(O)CN2CCN(CCN3C(=O)c4cccc5cccc(c45)C3=O)CC2)cc1 (configuration not stated)	2.28 µM
O=C(CCCCn1c(=O)c2ccccc2n(Cc2ccccc2)c1=O)NC1CCN(Cc2ccccc2)CC1	1.63 µM
CCN(Cc1ccccc1)S(=O)(=O)c1ccc(C(=O)N(CCCN(C)C)c2nc3cc(C)cc(C)c3s2)cc1	4.07 µM
Cc1ccccc1NC(=S)NC(=O)CCCCCN1C(=O)c2ccccc2C1=O	> 100 µM (inactive)
O=C(c1ccc(S(=O)(=O)N2CCCC2)cc1)N1CCC(CN2C(=O)c3cccc4cccc(c34)C2=O)CC1	4.19 µM
COc1ccc(OC)c2sc(N(CCCN(C)C)C(=O)c3ccc(S(=O)(=O)N4CCc5ccccc5C4)cc3)nc12	0.79 µM
O=C(C1CCN(c2ncnc3c2nc2n3CCCCC2)CC1)N1CCC(Cc2ccccc2)CC1	15 µM

SMILES	IC50
COc1cccc(NC(=O)CCCCCN2C(=O)c3cccc([N+](=O)[O-])c3C2=O)c1	> 100 µM (inactive)
N#Cc1ccccc1Cn1c(=O)n(CCCC(=O)NC2CCN(Cc3ccccc3)CC2)c(=O)c2ccccc21	0.63 µM
CCCCOC(=O)c1cccc(NC(=O)CCCCCN2C(=O)c3ccccc3C2=O)c1	inactive
CCOC(=O)c1c(NC(=O)COc2ccccc2C#N)sc2c1CC(C)(C)NC2(C)C	2.35 µM
CN(C)CCCN(C(=O)c1ccc(S(=O)(=O)N2CCCCC2)cc1)c1nc2cc3c(cc2s1)OCO3	8.13 µM
Cc1c(NC(=O)CCCN2C(=O)c3cccc4cccc(c34)C2=O)c(=O)n(-c2ccccc2)n1C	2.65 µM
COc1ccc(NC(=O)CCCCCN2C(=O)c3cccc([N+](=O)[O-])c3C2=O)cc1	> 100 µM (inactive)
COc1cccc(OCC(O)CN2CCN(CCN3C(=O)c4cccc5cccc(c45)C3=O)CC2)c1 (configuration not stated)	9.98 µM and 9.03 µM
O=C1c2cccc3cccc(c23)C(=O)N1CC1CCN(CC(O)COc2ccc3ccccc3c2)CC1 (configuration not stated)	3.32 µM
O=C(CCCCCN1C(=O)c2cccc3cccc(c23)C1=O)NCc1cccnc1	5.08 µM
CCOc1ccc2nc(N(CCCN(C)C)C(=O)c3ccc(S(=O)(=O)N4CCc5ccccc5C4)cc3)sc2c1	3.19 µM
CC(NC(=O)CCCCCN1C(=O)c2ccccc2C1=O)c1nc(-c2ccccc2)no1 (configuration not stated)	10.6 µM
Cc1cc(C)c2sc(N(CCCN(C)C)C(=O)c3ccc(S(=O)(=O)N(C)C4CCCCC4)cc3)nc2c1	7.48 µM
O=C1c2cccc3cccc(c23)C(=O)N1CCN1CCN(CC(O)COc2ccccc2)CC1 (configuration not stated)	17.6 µM
O=C(NCC1CCN(Cc2ccccc2F)CC1)C1CCCN(c2ncnc3c2nc2n3CCCCC2)C1 (configuration not stated)	10.7 µM
COc1ccc(C)c2sc(N(CCCN(C)C)C(=O)c3ccc(S(=O)(=O)N(C)C)cc3)nc12	8.72 µM
COc1ccc(C(=O)Nn2c(C)nc3ccccc3c2=O)cc1	2.36 µM
CCOc1cccc2sc(N(CCCN(C)C)C(=O)c3ccc(S(=O)(=O)N4CCc5ccccc5C4)cc3)nc12	4.1 µM
Cc1cc(C)c2sc(N(CCCN(C)C)C(=O)c3ccc(S(=O)(=O)N4CCc5ccccc5C4)cc3)nc2c1	2.28 µM
O=C(C1COc2ccccc2O1)N1CCN(CCN2C(=O)c3cccc4cccc(c34)C2=O)CC1 (configuration not stated)	> 100 µM (inactive)
CNCc1cc(Br)c(OCC(=O)Nc2ccccc2OC)c(OC)c1	6.37 µM
O=C(CCCn1c(=O)c2ccccc2n(Cc2cccc(F)c2)c1=O)NC1CCN(Cc2ccccc2)CC1	0.51 µM
Cc1ccc2nc(N(CCCN(C)C)C(=O)c3ccc(S(=O)(=O)N4CCc5ccccc5C4)cc3)sc2c1	4.83 µM

SMILES	IC50
CCN(Cc1ccccc1)S(=O)(=O)c1ccc(C(=O)N(CCCN(C)C)c2nc3cc4c(cc3s2)OCO4)cc1	4.47 µM
O=C1c2cccc3cccc(c23)C(=O)N1CCN1CCN(CC(O)COc2ccc3c(c2)OCO3)CC1 (configuration not stated)	6.68 µM
C=CCc1ccccc1OCC(O)CN1CCN(CCN2C(=O)c3cccc4cccc(c34)C2=O)CC1 (configuration not stated)	11.7 µM
Cc1cc(NS(=O)(=O)c2ccc(NC(=O)CCCCCN3C(=O)c4ccccc4C3=O)cc2)nc(C)n1	> 100 µM (inactive)
CN(C)CCCN(C(=O)c1ccc2c(c1)CCCC2)c1nc2ccc(Cl)cc2s1	10.7 µM
COc1cc(/C=C/c2cc[n+](C)cc2)ccc1OCC(=O)Nc1ccc(Cl)c(Cl)c1	3.5 µM
CN(C)CCCN(C(=O)c1ccc(S(=O)(=O)N2CCCCCC2)cc1)c1nc2cc3c(cc2s1)OCCO3	2.12 µM
COc1ccccc1NC(=S)NC(=O)CCCCCN1C(=O)c2ccccc2C1=O	> 100 µM (inactive)
O=C(C1CCN(c2ncnc3c2nc2n3CCCCC2)CC1)N1CCN(Cc2ccccc2)CC1	6.45 µM
Cc1ccc2c(c1)C1CN(C)CCC1N2C(=O)CCCN1C(=O)c2cccc3cccc(c23)C1=O (configuration not stated)	3.92 µM
Cc1[nH]c2c(Cl)c(Cl)ccc2c1CCNC(=O)CCCCCN1C(=O)c2ccccc2C1=O	0.67 µM
CN(C)CCCn1c(SCC(=O)Nc2nc(-c3cccc(Br)c3)cs2)nc2ccccc2c1=O	4.18 µM
CN(CCNC(=O)C1CCN(c2ncnc3c2nc2n3CCCCC2)CC1)Cc1ccccc1	1.65 µM
Cc1ccc(C)c(OCC(O)CN2CCN(CCN3C(=O)c4cccc5cccc(c45)C3=O)CC2)c1 (configuration not stated)	5.46 µM
Cc1cc(OCC(O)CN2CCN(CCN3C(=O)c4cccc5cccc(c45)C3=O)CC2)ccc1C(C)C (configuration not stated)	9.39 µM
Cc1ccccc1OCC(O)CN1CCN(CCN2C(=O)c3cccc4cccc(c34)C2=O)CC1 (configuration not stated)	12.8 µM
Cc1ccc(C)c(CN2CCC(CNC(=O)C3CCCN(c4ncnc5c4nc4n5CCCCC4)C3)CC2)c1 (configuration not stated)	3.42 µM
O=C(CCCCCN1C(=O)c2ccccc2C1=O)NCc1ccccc1	15.8 µM
CC(=O)Nc1ccc(OCC(O)CN2CCN(CCN3C(=O)c4cccc5cccc(c45)C3=O)CC2)cc1 (configuration not stated)	17.4 µM
CC(NC(=O)CCCCCN1C(=O)c2cccc([N+](=O)[O-])c2C1=O)c1ccccc1 (configuration not stated)	inactive
COc1ccc(COCC(O)CN2CCC(CN3C(=O)c4cccc5cccc(c45)C3=O)CC2)cc1OC (configuration not stated)	5.6 µM
COc1ccc(-c2oc3ncnc(N)c3c2-c2ccccc2)cc1	2.06 µM
O=C(Nc1ccc(F)c(Cl)c1)C1CCN(c2ncnc3c2nc2n3CCCCC2)CC1	6.08 µM

SMILES	IC50
CCOc1ccc2nc(N(CCCN(C)C)C(=O)c3ccc(C(=O)c4ccccc4)cc3)sc2c1	3.4 µM
O=C(CCCCCN1C(=O)c2ccccc2C1=O)NCc1ccccn1	inactive
COC(=O)C1=C(NC(=O)CCCCCN2C(=O)c3ccccc3C2=O)SC2CCCC12 (configuration not stated)	> 100 µM (inactive)
CN(C)CCCN(C(=O)c1ccc(S(=O)(=O)N2CCCC2)cc1)c1nc2ccc(Br)cc2s1	6.86 µM
COc1ccc(CCNC(=O)CCCCCN2C(=O)c3ccccc3C2=O)cc1OC	inactive
O=C(NCC1CCN(Cc2ccc(F)cc2)CC1)C1CCCN(c2ncnc3c2nc2n3CCCCC2)C1 (configuration not stated)	3.53 µM
CC1CCCCN1C(=O)C1CCN(c2ncnc3c2nc2n3CCCCC2)CC1 (configuration not stated)	inactive
CC(C)(C)c1ccc(OCC(O)CN2CCN(CCN3C(=O)c4cccc5cccc(c45)C3=O)CC2)cc1 (configuration not stated)	9.47 µM
O=C(NCC1CCN(Cc2cccc(Cl)c2)CC1)C1CCCN(c2ncnc3c2nc2n3CCCCC2)C1 (configuration not stated)	0.93 µM
O=C1c2cccc3cccc(c23)C(=O)N1CCN1CCN(CC(O)COc2ccc(C3CCCCC3)cc2)CC1 (configuration not stated)	6.02 µM
COc1ccc2sc(N(CCCN(C)C)C(=O)c3ccc(S(=O)(=O)N4CCc5ccccc5C4)cc3)nc2c1	5.62 µM
O=C(CCCCCN1C(=O)c2ccccc2C1=O)Nc1nc(C2CC2)cs1	> 100 µM (inactive)
CC1CC(C)CN(C(=O)C2CCN(c3ncnc4c3nc3n4CCCCC3)CC2)C1 (configuration not stated)	> 100 µM (inactive)
CCCN1CCN(C(=O)C2CCN(c3ncnc4c3nc3n4CCCCC3)CC2)CC1	3.42 µM
O=C(c1ccco1)N1CCN(C(=O)C2CCN(c3ncnc4c3nc3n4CCCCC3)CC2)CC1	inactive
CCOc1cccc2sc(N(CCCN(C)C)C(=O)c3ccc(S(=O)(=O)N(C)Cc4ccccc4)cc3)nc12	4.3 µM
COc1ccc2sc(N(CCCN(C)C)C(=O)c3ccc(S(=O)(=O)N(C)Cc4ccccc4)cc3)nc2c1	5.89 µM
COCCOC(=O)c1ccc(NC(=O)CCCCCN2C(=O)c3ccccc3C2=O)cc1	> 100 µM (inactive)
O=C(CCCn1c(=O)c2ccccc2n(Cc2cccc([N+](=O)[O-])c2)c1=O)NC1CCN(Cc2ccccc2)CC1	0.34 µM
CCCOC(=O)c1ccc(NC(=O)CCCCCN2C(=O)c3ccccc3C2=O)cc1	> 100 µM (inactive)
O=C(CCCCn1c(=O)c2ccccc2n(Cc2ccccc2F)c1=O)NC1CCN(Cc2ccccc2)CC1	2.99 µM
CN(C)CCCN(C(=O)c1ccc(S(=O)(=O)N2CCc3ccccc3C2)cc1)c1nc2ccc(F)cc2s1	8.1 µM
CN(C)CCCN(C(=O)c1ccc(C(=O)c2ccccc2)cc1)c1nc2cc3c(cc2s1)OCO3	6.57 µM
